Results taken from article PMC11172336, “Exploring Syndecan-4 and MLP and Their Interaction in Primary Cardiomyocytes and H9c2 Cells” (Cells, 2024).
Where a SMILES comes first, the peptide text is derived from it. Where no end group is shown, it is not given here. The star is where a group is joined. Biotin = O=C1N[C@H]2[C@H](CS[C@H]2CCCCC(=O)*)N1; Ahx = NCCCCCC(=O)O

What was measured:
recombinant 6xHis-MLP = assay: ELISA-based MLP self-association assay, coated recombinant 6xHis-MLP overlaid with biotinylated MLP-WT peptides; assay type: binding, human; conditions: 10 µg protein coated; biotinylated peptide 2-5 µM; PBS-only wells subtracted; n = 8
Experimental: (§1) 96-well ELISA microplates were coated with 10 µg of WT or mutated human 6xHis-MLP recombinant proteins or 10 µg of MLP peptides in PBS, and rotated at 4 °C overnight. Each well was rinsed with 0.05% Tween-20 in PBS (PBS-T) and blocked with 0.5% gelatin (G-1890, Sigma Merck, Darmstadt, Germany) for one hour at room temperature before incubation with the given biotinylated peptides at a final concentration of 2–5 µM for two hours at 37 °C with gentle agitation. Each well was then thoroughly washed with PBS-T five times before incubation with 100 µL of Biotin-HRP (A0185, Sigma Merck, Darmstadt, Germany) for 30 min at room temperature with gentle agitation. Each well was then washed with PBS-T 5 times before incubation with 100 µL of Ultra TMB substrate solution (34028, Thermo Fisher Scientific, Waltham, MA, USA) for 15–30 min at room temperature with gentle agitation to develop a blue color signal. The reaction was stopped with 100 µL of 2 M hydrochloric acid (HCl) per well (yellow color development). The absorbance of each well was read at 450 nm (Hidex sense multimodal microplate reader, Åbo, Finland).
To more precisely map the sites of self-association in MLP, an ELISA-based screening method was used. Full-length recombinant 6xHis-MLP-WT protein was coated into wells and overlayed with biotinylated overlapping MLP-WT peptides, together representing the full-length MLP sequence. […] Furthermore, to test whether mutations could affect self-association, wells were instead coated with mutated recombinant 6xHis-MLP proteins and overlayed with the biotinylated MLP-WT peptides, mimicking a heterozygous interaction. Compared to the WT recombinant protein, MLP peptides aa 50–79 and 125–154 bound weaker to most of the mutated MLP recombinant proteins, except for the HCM-associated L44P (at aa 125–154) and C58G mutations (at aa 50–79 and […]) (Figure 5D, left and right panel). A larger increase in N- and C-terminal binding was also observed for C58G.

[1] = test system: cytoplasmic domain of syndecan-4 (SDC4cyt); assay: ELISA-based assay, wells coated with MLP peptides, overlaid with biotin-SDC4cyt; assay type: binding, human; conditions: for biotin-SDC4cyt binding to 30 amino acid-long overlapping MLP-WT peptides: 10 µg peptide coated, biotinylated peptide 2-5 µM, 2 h 37 °C, absorbance 450 nm, normalized to SDC4scram, n = 12-28; for biotinylated SDC4cyt binding to mutated MLP peptide compared with MLP-WT peptide: 10 µg 30-mer peptide coated, SDC4cyt normalized to SDC4scram, related to MLP-WT (100%), n = 16, Mann-Whitney U
Experimental: as §1
We next aimed to identify the syndecan-4-MLP-binding domain(s). […]
Multiple human mutations in MLP are associated with hypertrophic cardiomyopathy (HCM) or dilated cardiomyopathy (DCM) (illustrated in Figure 2E). […] To test whether syndecan-4 binding to MLP was affected by any of the HCM- or DCM-associated mutations, we used an ELISA-based assay, where wells were coated with WT or mutated MLP peptide sequences.

recombinant 6xHis-MLP-WT = target: T1, recombinant 6xHis-MLP-WT (Homo sapiens, UniProt P50461); assay: Biacore surface plasmon resonance of SDC4cyt and MLP; assay type: binding; conditions: SPR, biotin-ahx-SDC4cyt immobilized on SA chip, 6xHis-MLP-WT injected, 1:1 Langmuir fit, n = 4
T1 construct: All MLP recombinant proteins were full length and had 6xHis tags at the N-terminus; purchased GenScript Biotech Corp
T1 sequence (P50461 1-194): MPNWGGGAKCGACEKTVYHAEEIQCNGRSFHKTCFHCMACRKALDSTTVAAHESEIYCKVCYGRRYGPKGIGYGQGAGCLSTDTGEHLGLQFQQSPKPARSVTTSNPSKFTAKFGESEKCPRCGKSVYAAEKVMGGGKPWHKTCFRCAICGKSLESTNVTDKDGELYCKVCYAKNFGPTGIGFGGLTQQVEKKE
Experimental: A streptavidin (SA) chip (BR1000032, Cytiva, Marlborough, MA, USA) was conditioned with three 1 min injections of 1 × Biacore running buffer (BR100826, Cytiva, Marlborough, MA, USA), and biotinylated SDC4cyt was immobilized at 133–350 resonance units (RUs). Recombinant 6xHis-MLP-WT was dialyzed into 1 × Biacore running buffer, and increasing concentrations were injected over the chip’s surface at a flow rate of 30 µL per minute for 180 s. For the different runs, concentration ranges spanned 2.9–14.6 nM, 1.2–100 nM, and 21.2–500 nM. The dissociation time was set to 600 s. Sensorgrams were analyzed using the Biacore X100 software (Version 2.0.1) with the assumption of 1:1 binding (Langmuir binding model).
The binding of SDC4cyt and MLP was further investigated with surface plasmon resonance (SPR), where a biotinylated SDC4cyt peptide was immobilized on an SA chip, and a serial dilution of recombinant 6xHis-MLP-WT protein was injected over the chip. The results were analyzed by fitting with a 1:1 interaction model (Langmuir). The dissociation equilibrium constant (kD) was 15.6 ± 7.8 nM, with an association constant (ka) of (8.7 ± 1.4) × 10^4 M^−1 s^−1 and a dissociation rate constant (kd) of (12.2 ± 5.3) × 10^−4 s^−1, indicating a strong interaction (Figure 2D). […]

human MLP = assay: Peptide array overlay of MLP 20-mers with biotinylated peptide; assay type: binding; conditions: 20-mers with 3 amino acid offset, overlay overnight at 4 °C, n = 3
Experimental: Human, rat, and mouse MLP were synthesized as overlapping 20-mers with three amino acid offsets onto cellulose membranes by an automated MultiPep peptide synthesizer (INTAVIS Bioanalytical instruments AG, Tübingen, Germany). After blocking, membranes were incubated with a biotin-ahx-SDC4cyt (SDC4cyt) peptide, a scrambled biotin-ahx-SDC4cyt (SDC4scram), a custom-made MLP antibody (#R06991, GenScript Biotech Corp, Piscataway, NJ, USA), or a commercially available MLP antibody (sc-166930, Santa Cruz, Dallas, TX, USA) overnight at 4 °C. The remaining consequent steps were identical to those performed for immunoblotting, as described further below.
We next aimed to identify the syndecan-4-MLP-binding domain(s). A biotinylated peptide covering the cytoplasmic domain of syndecan-4 (SDC4cyt) was overlaid onto 20’mer overlapping peptides covering the full length of human MLP.

MLP-WT peptide aa 100–129: 30 amino acid-long overlapping MLP-WT peptide, amino acids 100–129, with or without N-terminal biotin (RSVTTSNPSKFTAKFGESEKCPRCGKSVYA)
binding of biotinylated MLP-WT peptide to full-length recombinant 6xHis-MLP-WT (self-association) (recombinant 6xHis-MLP): Minimal binding | biotin-SDC4cyt binding to 30 amino acid-long overlapping MLP-WT peptides [1]: binding was confirmed

AAHESEIYCKVCYGRRYGPRGIGYGQGAGC [MLP-K69R, 30-mer human MLP peptide with K69R mutation]
biotinylated SDC4cyt binding to mutated MLP peptide compared with MLP-WT peptide [1]: tendency of reduced binding

CC[C@H](C)[C@H](NC(=O)[C@@H]1CCCN1C(=O)[C@H](CCCCN)NC(=O)[C@H](CCCCN)NC(=O)CNC(=O)[C@H](CC(C)C)NC(=O)[C@H](CC(=O)O)NC(=O)[C@H](Cc1ccc(O)cc1)NC(=O)[C@H](CO)NC(=O)CNC(=O)[C@H](CCC(=O)O)NC(=O)[C@H](CC(=O)O)NC(=O)[C@H](CCCCN)NC(=O)[C@H](CCCCN)NC(=O)[C@H](CCCCN)NC(=O)[C@H](CCSC)NC(=O)[C@H](CCCNC(=N)N)NC(=O)CCCCCNC(=O)CCCC[C@@H]1SC[C@@H]2NC(=O)N[C@@H]21)C(=O)N[C@@H](Cc1ccc(O)cc1)C(=O)N[C@@H](CCCCN)C(=O)N[C@@H](CCCCN)C(=O)N[C@@H](C)C(=O)N1CCC[C@H]1C(=O)N[C@H](C(=O)N[C@@H](CC(N)=O)C(=O)N[C@@H](CCC(=O)O)C(=O)N[C@@H](Cc1ccccc1)C(=O)N[C@@H](Cc1ccc(O)cc1)C(=O)N[C@@H](C)C(=O)O)[C@@H](C)O [SDC4cyt] ({Biotin-Ahx}-RMKKKDEGSYDLGKKPIYKKAPTNEFYA-OH)
kon (recombinant 6xHis-MLP-WT; read-out: association constant (ka)): 87000 M⁻¹ s⁻¹ | koff (recombinant 6xHis-MLP-WT; read-out: dissociation rate constant (kd)): 0.00122 s⁻¹

MPNRGGGAKCGACEKTVYHAEEIQCNGRSF [MLP-W4R, 30-mer human MLP peptide with W4R mutation]
biotinylated SDC4cyt binding to mutated MLP peptide compared with MLP-WT peptide [1]: did not alter the binding

AAHESEIYCKVCYGRRYGPKGIRYGQGAGC [MLP-G72R, 30-mer human MLP peptide with G72R mutation]
biotinylated SDC4cyt binding to mutated MLP peptide compared with MLP-WT peptide [1]: tendency of reduced binding

MLP-WT peptide aa 25–54: 30 amino acid-long overlapping MLP-WT peptide, amino acids 25–54 (CNGRSFHKTCFHCMACRKALDSTTVAAHES)
biotin-SDC4cyt binding to 30 amino acid-long overlapping MLP-WT peptides [1]: binding was confirmed

MLP-WT peptide aa 50–79: 30 amino acid-long overlapping MLP-WT peptide, amino acids 50–79, with or without N-terminal biotin (AAHESEIYCKVCYGRRYGPKGIGYGQGAGC)
binding of biotinylated MLP-WT peptide to full-length recombinant 6xHis-MLP-WT (self-association) (recombinant 6xHis-MLP): strongest binding | biotin-SDC4cyt binding to 30 amino acid-long overlapping MLP-WT peptides [1]: binding was confirmed

AAHERGIYCKVCYGRRYGPKGIGYGQGAGC [MLP-S54R,E55G, 30-mer human MLP peptide with S54R,E55G mutation]
biotinylated SDC4cyt binding to mutated MLP peptide compared with MLP-WT peptide [1]: significantly weaker

MLP-WT peptide aa 165–194: biotinylated 30-mer MLP-WT peptide, amino acids 165–194 (Biotin-ELYCKVCYAKNFGPTGIGFGGLTQQVEKKE; cysteine pairing not given here)
binding of biotinylated MLP-WT peptide to full-length recombinant 6xHis-MLP-WT (self-association) (recombinant 6xHis-MLP): Minimal binding

CNGRSFHKTCFHCMACRKALDRTTVAAHES [MLP-S46R, 30-mer human MLP peptide with S46R mutation]
biotinylated SDC4cyt binding to mutated MLP peptide compared with MLP-WT peptide [1]: significantly weaker

AAHESEIYCKVCYGCRYGPKGIGYGQGAGC [MLP-R64C, 30-mer human MLP peptide with R64C mutation]
biotinylated SDC4cyt binding to mutated MLP peptide compared with MLP-WT peptide [1]: tendency of reduced binding

MLP-WT peptide aa 125–154: 30 amino acid-long overlapping MLP-WT peptide, amino acids 125–154, with or without N-terminal biotin
binding of biotinylated MLP-WT peptide to full-length recombinant 6xHis-MLP-WT (self-association) (recombinant 6xHis-MLP): strongest binding | biotin-SDC4cyt binding to 30 amino acid-long overlapping MLP-WT peptides [1]: binding was confirmed

GTKYPKMDRGKLFKYKAKPEDNESAYIK [SDC4scram]
binding to 20-mer overlapping human MLP peptides on membrane (human MLP): did not recognize any human MLP sequence

CNGRSFHKTCFHCMACRKAPDSTTVAAHES [MLP-L44P, 30-mer human MLP peptide with L44P mutation]
biotinylated SDC4cyt binding to mutated MLP peptide compared with MLP-WT peptide [1]: significantly weaker
